Measurements as given in patent publication US20230331737A1, “MTORC1 MODULATORS AND USES THEREOF” (Aeovian Pharmaceuticals, Inc., priority 2020, published 2023).
pIC50, pKd: −log10 of the molar value.

What was measured:
mTORC1 = molecular target: T1, mTORC1 (Homo sapiens, UniProt P42345+P62942); experiment: mTORC1 inhibition in PC-3 cells, AlphaLISA of p70S6K pT389 levels; format: cell-based; conditions: mTORC1 as measured by inhibition of p70S6K pT389 levels, read-out: mTROC1 IC50
T1 construct: endogenous in cells; host or cells: PC-3 cells
Description: mTORC1 inhibition was determined via analysis of phosphorylation levels of Phospho-p70 S6 kinase (p70S6K pT389) and Phospho-S6 Ribosomal Protein (pRPS6 pS240/pS244) with the corresponding AlphaLISA kits (PerkinElmer Alpha SF Ultra™ Multiplex phospho (Thr389)/total p70 S6K Assay Kit (Eu/Tb) and AlphaLISA SF Ultra™ p-Ribosomal Protein S6 (Ser240/244) Assay Kit).
%−activity=100*((Sample−Low control)/(High control−Low control))

FKBP12 = FKBP12 (Homo sapiens, UniProt P62942); experiment: SPR assay to determine binding affinity to FKBP12 (direct binding); conditions: immobilized biotinylated avi-FKBP12, single-cycle kinetics
Description: SPR Assay to Determine Binding Affinity to FKBP12.
Biotinylated avi-FKBP12 was immobilized on a streptavidin chip (Cytiva Series S SA) using a Biacore 8K or 8k+ (Cytiva). […] Test compounds described in Table 11 were diluted in DMSO to 100× working concentration. Each test compound was 100-fold diluted in 50 mM HEPES pH 7.5, 150 mM NaCl, 2 mM MgCl2, 1 mM DTT, 0.05% Tween-20 and a serial dilution prepared (9 concentrations, 3-fold dilutions, 0.08-500 nM). […] The compound dilutions were then injected at 100 uL/min for 120 seconds contact time in sequence with increasing concentrations. Dissociation was monitored for 3600 seconds. 50 mM HEPES pH 7.5, 150 mM NaCl, 2 mM MgCl2, 1 mM DTT, 0.05% Tween-20, 1% DMSO was used as running buffer. The single-cycle kinetics data were fit to a 1:1 binding model to measure the association rate ka (1/Ms), the dissociation rate kd (1/s) and the affinity Kd (M).

[1] = molecular target: FKBP12 ternary complex with FRB (Homo sapiens, UniProt P42345+P62942); experiment: SPR assay to characterize ternary complex formation with FKBP12 (FRB injected over compound-saturated FKBP12); format: binding; conditions: FRB dilutions with 100 nM test compound over immobilized FKBP12
Description: Biotinylated avi-FKBP12 was immobilized on a streptavidin chip (Cytiva Series S SA) using a Biacore 8K or 8k+ (Cytiva). To achieve an immobilization level of 100 RU, 0.3 μg/ml biotinylated avi-FKBP12 were injected for 80 sec at a flow rate of 10 μl/min. Serial dilution of FRB was prepared (12 concentrations, 3-fold dilutions, 0.00011-20 μM) and supplemented with 100 nM of a test compound. A-B-A injection mode was used to ensure saturation immobilized FKBP12 with respective test compound. 100 nM solution of the respective test compound was injected before FRB injection for 120 sec and during dissociation for 420 sec. The FRB dilutions were then injected 120 seconds contact time with increasing concentrations. Rapamycin was used as reference sample. 50 mM HEPES pH 7.5, 150 mM NaCl, 2 mM MgCl2, 1 mM DTT, 0.05% Tween-20, 1% DMSO was used as running buffer at a flow rate of 30 μl/min. The multi-cycle kinetics data were fit to a 1:1 binding model to measure the association rate ka (1/Ms), the dissociation rate kd (1/s) and the affinity Kd (M). In case of fast association and dissociation, steady state affinity analysis following the law of mass action was used to determine the affinity Kd (M).

Sequence of FKBP12 (P62942 whole entry, species assumed): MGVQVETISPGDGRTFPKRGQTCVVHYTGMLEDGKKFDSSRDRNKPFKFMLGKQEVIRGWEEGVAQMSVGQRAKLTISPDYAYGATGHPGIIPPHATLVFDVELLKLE

`CO[C@@H]1C[C@H](C[C@@H](C)[C@@H]2CC(=O)[C@H](C)/C=C(\C)[C@@H](O)[C@@H](OC)C(=O)[C@H](C)C[C@H](C)/C=C/C=C/C=C(\C)[C@H](OCC3COC3)C[C@@H]3CC[C@@H](C)[C@@](O)(O3)C(=O)C(=O)N3CCCC[C@H]3C(=O)O2)CC[C@H]1O` [Compound 122, (1R,9S,12S,15R,16E,18R,19R,21R,23S,24E,26E,28E,30R,32S,35R)-1,18-dihydroxy-12-[(2R)-1-[(1S,3R,4R)-4-hydroxy-3-methoxycyclohexyl]propan-2-yl]-19-methoxy-15,17,21,23,29,35-hexamethyl-30-[(oxetan-3-yl)methoxy]-11,36-dioxa-4-azatricyclo[30.3.1.04,9]hexatriaconta-16,24,26,28-tetraene-2,3,10,14,20-pentone] showed a pIC50 (mTORC1) of 8.82 to 9.10, a pKd (FKBP12) of 9.00 to 9.52 and a pKd [1] of less than 5.96.

With `CO[C@@H]1C[C@H](C[C@@H](C)[C@@H]2CC(=O)[C@H](C)/C=C(\C)[C@@H](O)[C@@H](OC)C(=O)[C@H](C)C[C@H](C)/C=C/C=C/C=C(\C)[C@@H](OC3COC3)C[C@@H]3CC[C@@H](C)[C@@](O)(O3)C(=O)C(=O)N3CCCC[C@H]3C(=O)O2)CC[C@H]1O` [Compound 523, (1R,9S,12S,15R,16E,18R,19R,21R,23S,24E,26E,28E,30S,32S,35R)-1,18-dihydroxy-12-[(2R)-1-[(1S,3R,4R)-4-hydroxy-3-methoxycyclohexyl]propan-2-yl]-19-methoxy-15,17,21,23,29,35-hexamethyl-30-(oxetan-3-yloxy)-11,36-dioxa-4-azatricyclo[30.3.1.04,9]hexatriaconta-16,24,26,28-tetraene-2,3,10,14,20-pentone] the pIC50 (mTORC1) was greater than 9.10, the pKd (FKBP12) was greater than 9.52 and the pKd [1] was less than 5.96.

`CO[C@@H]1C[C@H](C[C@@H](C)[C@@H]2CC(=O)[C@H](C)/C=C(\C)[C@@H](O)[C@@H](OC)C(=O)[C@H](C)C[C@H](C)/C=C/C=C/C=C(\C)[C@H](OC3COC3)C[C@@H]3CC[C@@H](C)[C@@](O)(O3)C(=O)C(=O)N3CCCC[C@H]3C(=O)O2)CC[C@H]1O` [Compound 124, (1R,9S,12S,15R,16E,18R,19R,21R,23S,24E,26E,28E,30R,32S,35R)-1,18-dihydroxy-12-[(2R)-1-[(1S,3R,4R)-4-hydroxy-3-methoxycyclohexyl]propan-2-yl]-19-methoxy-15,17,21,23,29,35-hexamethyl-30-(oxetan-3-yloxy)-11,36-dioxa-4-azatricyclo[30.3.1.04,9]hexatriaconta-16,24,26,28-tetraene-2,3,10,14,20-pentone] gave a pIC50 (mTORC1) of less than 8.82, a pKd (FKBP12) greater than 9.52 and a pKd [1] of less than 5.96.

`CO[C@@H]1C[C@H](C[C@@H](C)[C@@H]2CC(=O)[C@H](C)/C=C(\C)[C@@H](O)[C@@H](OC)C(=O)[C@H](C)C[C@H](C)/C=C/C=C/C=C(\C)[C@@H](OCC3COC3)C[C@@H]3CC[C@@H](C)[C@@](O)(O3)C(=O)C(=O)N3CCCC[C@H]3C(=O)O2)CC[C@H]1OCCO` [Compound 474, (1R,9S,12S,15R,16E,18R,19R,21R,23S,24E,26E,28E,30S,32S,35R)-1,18-dihydroxy-12-[(1R)-2-[(1S,3R,4R)-4-(2-hydroxyethoxy)-3-methoxy-cyclohexyl]-1-methyl-ethyl]-19-methoxy-15,17,21,23,29,35-hexamethyl-30-(oxetan-3-ylmethoxy)-11,36-dioxa-4-azatricyclo[30.3.1.04,9]hexatriaconta-16,24,26,28-tetraene-2,3,10,14,20-pentone] gave a pIC50 (mTORC1) greater than 9.10, a pKd (FKBP12) of 9.00 to 9.52 and a pKd [1] of 5.96 to 6.30.

With `COCCO[C@H]1C[C@@H]2CC[C@@H](C)[C@@](O)(O2)C(=O)C(=O)N2CCCC[C@H]2C(=O)O[C@H]([C@H](C)C[C@@H]2CC[C@@H](O)[C@H](OC)C2)CC(=O)[C@H](C)/C=C(\C)[C@@H](O)[C@@H](OC)C(=O)[C@H](C)C[C@H](C)/C=C/C=C/C=C/1C` [Compound 529, (1R,9S,12S,15R,16E,18R,19R,21R,23S,24E,26E,28E,30S,32S,35R)-1,18-dihydroxy-12-[(1R)-2-[(1S,3R,4R)-4-hydroxy-3-methoxy-cyclohexyl]-1-methyl-ethyl]-19-methoxy-30-(2-methoxyethoxy)-15,17,21,23,29,35-hexamethyl-11,36-dioxa-4-azatricyclo[30.3.1.04,9]hexatriaconta-16,24,26,28-tetraene-2,3,10,14,20-pentone] the pIC50 (mTORC1) was greater than 9.10, the pKd (FKBP12) was greater than 9.52 and the pKd [1] was greater than 6.30.

Work on `CO[C@@H]1C[C@H](C[C@@H](C)[C@@H]2CC(=O)[C@H](C)/C=C(\C)[C@@H](O)[C@@H](OC)C(=O)[C@H](C)C[C@H](C)/C=C/C=C/C=C(\C)[C@@H](OC3CC3)C[C@@H]3CC[C@@H](C)[C@@](O)(O3)C(=O)C(=O)N3CCCC[C@H]3C(=O)O2)CC[C@H]1O` [Compound 120, (1R,9S,12S,15R,16E,18R,19R,21R,23S,24E,26E,28E,30S,32S,35R)-30-(cyclopropoxy)-1,18-dihydroxy-12-[(1R)-2-[(1S,3R,4R)-4-hydroxy-3-methoxy-cyclohexyl]-1-methyl-ethyl]-19-methoxy-15,17,21,23,29,35-hexamethyl-11,36-dioxa-4-azatricyclo[30.3.1.04,9]hexatriaconta-16,24,26,28-tetraene-2,3,10,14,20-pentone] yielded a pIC50 (mTORC1) greater than 9.10, a pKd (FKBP12) of 9.00 to 9.52 and a pKd [1] greater than 6.30.

Compound `CO[C@@H]1C[C@H](C[C@@H](C)[C@@H]2CC(=O)[C@H](C)/C=C(\C)[C@@H](O)[C@@H](OC)C(=O)[C@H](C)C[C@H](C)/C=C/C=C/C=C(\C)[C@H](OCCc3ccccc3)C[C@@H]3CC[C@@H](C)[C@@](O)(O3)C(=O)C(=O)N3CCCCC3C(=O)O2)CC[C@H]1O` (stereo partly drawn) [Compound 121, (1R,9S,12S,15R,16E,18R,19R,21R,23S,24E,26E,28E,30R,32S,35R)-1,18-dihydroxy-12-[(1R)-2-[(I S,3R,4R)-4-hydroxy-3-methoxy-cyclohexyl]-1-methyl-ethyl]-19-methoxy-15,17,21,23,29,35-hexamethyl-30-(2-phenylethoxy)-11,36-dioxa-4-azatricyclo[30.3.1.04,9]hexatriaconta-16,24,26,28-tetraene-2,3,10,14,20-pentone] has a pIC50 (mTORC1) of 8.82 to 9.10, a pKd (FKBP12) of less than 9.00 and a pKd [1] greater than 6.30.

`CO[C@@H]1C[C@H](C[C@@H](C)[C@@H]2CC(=O)[C@H](C)/C=C(\C)[C@@H](O)[C@@H](OC)C(=O)[C@H](C)C[C@H](C)/C=C/C=C/C=C(\C)[C@H](OCCOCCO)C[C@@H]3CC[C@@H](C)[C@@](O)(O3)C(=O)C(=O)N3CCCC[C@H]3C(=O)O2)CC[C@H]1O` [Compound 125, (1R,9S,12S,15R,16E,18R,19R,21R,23S,24E,26E,28E,30R,32S,35R)-1,18-dihydroxy-30-[2-(2-hydroxyethoxy)ethoxy]-12-[(1R)-2-[(1S,3R,4R)-4-hydroxy-3-methoxy-cyclohexyl]-1-methyl-ethyl]-19-methoxy-15,17,21,23,29,35-hexamethyl-11,36-dioxa-4-azatricyclo[30.3.1.04,9]hexatriaconta-16,24,26,28-tetraene-2,3,10,14,20-pentone] was tested, and the pIC50 (mTORC1) was 8.82 to 9.10, the pKd (FKBP12) was greater than 9.52 and the pKd [1] was less than 5.96.
